The test system of assay [1] is human SMN2 transgene exon 7 C840T (C6T) in SMA mESCs. Description: Adenine base editing of SMN2 C840T (C6T) after transfection of SMA mESCs. It is filed as cell-based, mouse. Particulars: ABE8 fusions, FIG. 4.
A further assay has as its system DNA. Particulars: SpCas9 mutation relative to SEQ ID NO: 5; UniProtKB Q99ZW2 entry; cited from earlier work.

On to “iSpyMac: iSpyMac-variant ABE8e adenine base editor; SEQ ID NO: 476”, for which the “editing of C840T” value in assay [1] was “edited C840T with high efficiency”.

B1: 175-307 deletion: SpCas9 mutation relative to SEQ ID NO: 5 (protein)
chain: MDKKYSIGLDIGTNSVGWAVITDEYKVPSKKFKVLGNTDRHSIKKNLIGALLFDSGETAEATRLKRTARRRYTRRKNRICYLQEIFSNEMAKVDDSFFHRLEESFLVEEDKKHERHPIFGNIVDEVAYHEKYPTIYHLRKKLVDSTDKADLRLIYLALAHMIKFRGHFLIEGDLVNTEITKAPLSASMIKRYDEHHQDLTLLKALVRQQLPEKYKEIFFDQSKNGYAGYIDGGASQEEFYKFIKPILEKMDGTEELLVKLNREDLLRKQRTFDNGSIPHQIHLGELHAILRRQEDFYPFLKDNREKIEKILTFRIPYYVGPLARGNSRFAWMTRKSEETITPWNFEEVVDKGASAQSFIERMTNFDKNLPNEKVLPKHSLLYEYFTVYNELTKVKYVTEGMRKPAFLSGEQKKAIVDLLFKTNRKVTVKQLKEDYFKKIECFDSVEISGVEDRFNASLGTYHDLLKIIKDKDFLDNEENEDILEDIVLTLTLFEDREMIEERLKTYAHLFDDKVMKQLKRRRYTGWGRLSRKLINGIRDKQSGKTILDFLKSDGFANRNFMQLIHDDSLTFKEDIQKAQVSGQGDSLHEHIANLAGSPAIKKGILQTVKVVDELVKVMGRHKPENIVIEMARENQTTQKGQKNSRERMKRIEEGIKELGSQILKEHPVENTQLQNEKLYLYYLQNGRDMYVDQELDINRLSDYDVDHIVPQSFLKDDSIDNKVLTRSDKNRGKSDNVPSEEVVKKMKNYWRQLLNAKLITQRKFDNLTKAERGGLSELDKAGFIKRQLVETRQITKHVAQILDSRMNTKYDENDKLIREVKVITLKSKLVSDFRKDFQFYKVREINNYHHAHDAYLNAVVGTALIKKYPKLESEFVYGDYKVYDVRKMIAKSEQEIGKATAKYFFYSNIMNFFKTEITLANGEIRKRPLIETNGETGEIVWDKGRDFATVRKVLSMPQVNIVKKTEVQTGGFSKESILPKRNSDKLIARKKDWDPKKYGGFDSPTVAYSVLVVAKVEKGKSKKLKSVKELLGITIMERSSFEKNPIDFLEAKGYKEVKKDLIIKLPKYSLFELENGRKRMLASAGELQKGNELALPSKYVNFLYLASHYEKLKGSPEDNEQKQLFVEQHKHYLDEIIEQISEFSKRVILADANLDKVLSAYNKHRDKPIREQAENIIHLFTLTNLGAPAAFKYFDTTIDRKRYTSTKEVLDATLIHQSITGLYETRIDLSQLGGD
modifications: Streptococcus pyogenes
Take B1: in the assay with DNA, the “decreased DNA cleavage” value is recorded as “About 50% decreased DNA cleavage”.

These data come from patent publication US20230108687A1, “GENE EDITING METHODS FOR TREATING SPINAL MUSCULAR ATROPHY” (The Broad Institute, Inc., priority 2020, published 2023).
